Legend:
[1] = tested on: sandbur; assay: Test E preemergence; type: in vivo, Cenchrus echinatus; conditions: for Sandbur plant response rating: scale 0 to 100 (0 no effect, 100 complete control)
Procedure, shortened: (§1)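 Response was scored visually on a 0-100 scale (100 = complete control) versus controls after 14 to 21 days in the greenhouse. Test chemicals, formulated with surfactant in a non-phytotoxic solvent mixture, had been applied preemergence to seeds in silt loam soil or postemergence to 1- to 4-leaf plants in potting medium.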

[2] = tested on: giant foxtail; assay: Test E preemergence; type: in vivo, Setaria faberii; conditions: for Foxtail, Giant plant response rating: scale 0 to 100 (0 no effect, 100 complete control)
Excerpt: (§2) Seeds of plant species selected from corn (Zea mays), soybean (Glycine max), velvetleaf (Abutilon theophrasti), lambsquarters (Chenopodium album), wild poinsettia (Euphorbia heterophylla), palmer pigweed (Amaranthus palmeri), waterhemp (common waterhemp, Amaranthus rudis), surinam grass (Brachiaria decumbens), large (Lg) crabgrass (Digitaria sanguinalis), Brazilian crabgrass (Digitaria horizontalis), fall panicum (Panicum dichotomiflorum), giant foxtail (Setaria faberii), green foxtail (Setaria viridis), goosegrass (Eleusine indica), johnsongrass (Sorghum halepense), ragweed (common ragweed, Ambrosia elatior), barnyardgrass (Echinochloa crus-galli), sandbur (southern sandbur, Cenchrus echinatus), arrowleaf sida (Sida rhombifolia), Italian ryegrass (Lolium multiflorum), dayflower (Virginia (VA) dayflower, Commelina virginica), field bindweed (Convolvulus arvensis), morningglory (Ipomoea coccinea), nightshade (eastern black nightshade, Solanum ptycanthum), kochia (Kochia scoparia), yellow nutsedge (Cyperus esculentus), cocklebur (common cocklebur, Xanthium strumarium), smartweed (ladysthumb smartweed, and hairy beggarticks (Bidens pilosa), were planted into a silt loam soil and treated preemergence with test chemicals formulated in a non-phytotoxic solvent mixture which included a surfactant.
(§3) At the same time, plants from these crop and weed species and also horseweed (Canada horseweed, Conyza canadensis), waterhemp_RES1, (ALS & Triazine resistant common waterhemp, Amaranthus rudis), and waterhemp_RES2, (ALS & HPPD resistant common waterhemp, Amaranthus rudis) were planted in pots containing Redi-Earth® planting medium (Scotts Company, 14111 Scottslawn Road, Marysville, Ohio 43041) comprising spaghnum peat moss, vermiculite, wetting agent and starter nutrients were treated with postemergence applications of test chemicals formulated in the same manner. Plants ranged in height from 2 to 18 cm for postemergence treatments (1- to 4-leaf stage). Treated plants and controls were maintained in a greenhouse for 14 to 21 days, after which time all species were compared to controls and visually evaluated. Plant response ratings, summarized in Table E, are based on a scale of 0 to 100 where 0 is no effect and 100 is complete control. A dash (-) response means no test result.

[3] = tested on: Italian ryegrass; assay: Test E preemergence; type: in vivo, Lolium multiflorum; conditions: for Ryegrass, Italian plant response rating: scale 0 to 100 (0 no effect, 100 complete control)
Excerpt: as §2, §3

[4] = tested on: arrowleaf sida; assay: Test E preemergence; type: in vivo, Sida rhombifolia; conditions: for Arrowleaf Sida plant response rating: scale 0 to 100 (0 no effect, 100 complete control)
Excerpt: as §2, §3

[5] = tested on: johnsongrass; assay: Test E preemergence; type: in vivo, Sorghum halepense; conditions: for Johnsongrass plant response rating: scale 0 to 100 (0 no effect, 100 complete control)
Excerpt: as §2, §3

[6] = tested on: surinam grass; assay: Test E preemergence; type: in vivo, Brachiaria decumbens; conditions: for Surinam Grass plant response rating: scale 0 to 100 (0 no effect, 100 complete control)
Procedure, shortened: as §1

[7] = tested on: green foxtail; assay: Test E preemergence; type: in vivo, Setaria viridis; conditions: for Foxtail, Green plant response rating: scale 0 to 100 (0 no effect, 100 complete control)
Excerpt: as §2, §3

[8] = tested on: ragweed; assay: Test A postemergence; type: in vivo, Ambrosia elatior
Procedure, shortened: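 Visual injury scored 0–100 (100 = complete control) against untreated controls about 10 days after treatment in a greenhouse. Test chemicals, formulated with surfactant in non-phytotoxic solvent, were sprayed on soil preemergence or on 2-10 cm, one- to two-leaf plants postemergence.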

[9] = 125 g ai/ha, scale 0 to 100, 0 no effect, 100 complete control
[10] = 250 g ai/ha, scale 0 to 100, 0 no effect, 100 complete control
[11] = Preemergence, 62 g ai/ha, scale 0 to 100, 0 no effect, 100 complete control
[12] = preemergence, 125 g ai/ha, scale 0 to 100, 0 no effect, 100 complete control
[13] = 125 g ai/ha, 0 to 100 scale where 0 is no effect and 100 is complete control
[14] = 500 g ai/ha, 0 to 100 scale where 0 is no effect and 100 is complete control
[15] = 8 g ai/ha, scale 0 to 100, 0 is no effect, 100 is complete control

CCOc1cnn(-c2c(C#N)cccc2Oc2ncc(F)cn2)c1 [Compound 89]
65: Plant response rating, Foxtail, Giant [2, 9] | Plant response rating, Foxtail, Green [7, 9]
10: Sandbur plant response rating ([1]; 62 g ai/ha) | Plant response rating, Sandbur [1, 9] | Johnsongrass plant response rating ([5]; 62 g ai/ha) | Plant response rating, Surinam Grass [6, 9]
50: Arrowleaf Sida plant response rating ([4]; 31 g ai/ha, preemergence) | Plant response rating, Johnsongrass [5, 9]
85: Plant response rating, Foxtail, Green [7, 10]
35: Foxtail, Green plant response rating ([7]; 62 g ai/ha)
90: Plant response rating, Ragweed [8, 14]
100: Plant response rating, Foxtail, Giant [2, 10] | Plant response rating, Arrowleaf Sida [4, 12] | Plant response rating, Arrowleaf Sida ([4]; preemergence, 250 g ai/ha, scale 0 to 100, 0 no effect, 100 complete control) | Plant response rating, Johnsongrass [5, 10]
75: Plant response rating, Arrowleaf Sida [4, 11] | Plant response rating, Surinam Grass [6, 10]
30: Plant response rating, Ragweed [8, 13]
20: Plant response rating, Sandbur [1, 10] | Foxtail, Giant plant response rating ([2]; 62 g ai/ha)
0: Sandbur plant response rating ([1]; 31 g ai/ha) | Foxtail, Giant plant response rating ([2]; 31 g ai/ha) | Ryegrass, Italian plant response rating ([3]; 31 g ai/ha) | Ryegrass, Italian plant response rating ([3]; 62 g ai/ha) | Plant response rating, Ryegrass, Italian [3, 9] | Plant response rating, Ryegrass, Italian [3, 10] | Johnsongrass plant response rating ([5]; 31 g ai/ha) | Surinam Grass plant response rating ([6]; 31 g ai/ha) | Surinam Grass plant response rating ([6]; 62 g ai/ha) | Foxtail, Green plant response rating ([7]; 31 g ai/ha)

FCc1cccc(Oc2ncc(Cl)cn2)c1-n1cc(Cl)cn1 [Compound 250]
60: Arrowleaf Sida plant response rating ([4]; 62 g ai/ha, preemergence)
100: Plant response rating, Arrowleaf Sida [4, 12] | Plant response rating, Ragweed ([8]; 125 g ai/ha, 0 to 100 scale, 0 no effect, 100 complete control)
0: Sandbur plant response rating ([1]; 31 g ai/ha) | Sandbur plant response rating ([1]; 62 g ai/ha) | Foxtail, Giant plant response rating ([2]; 16 g ai/ha) | Foxtail, Giant plant response rating ([2]; 31 g ai/ha) | Ryegrass, Italian plant response rating ([3]; 31 g ai/ha) | Ryegrass, Italian plant response rating ([3]; 62 g ai/ha) | Plant response rating, Ryegrass, Italian [3, 9] | Arrowleaf Sida plant response rating ([4]; 16 g ai/ha, preemergence) | Johnsongrass plant response rating ([5]; 31 g ai/ha) | Johnsongrass plant response rating ([5]; 62 g ai/ha) | Surinam Grass plant response rating ([6]; 31 g ai/ha) | Surinam Grass plant response rating ([6]; 62 g ai/ha) | Plant response rating, Surinam Grass [6, 9] | Foxtail, Green plant response rating ([7]; 16 g ai/ha) | Foxtail, Green plant response rating ([7]; 31 g ai/ha) | Foxtail, Green plant response rating ([7]; 62 g ai/ha)
25: Plant response rating, Sandbur [1, 9]
90: Plant response rating, Foxtail, Green [7, 9]
98: Plant response rating, Foxtail, Giant [2, 9]
15: Foxtail, Giant plant response rating ([2]; 62 g ai/ha)
50: Plant response rating, Johnsongrass [5, 9] | Plant response rating, Ragweed ([8]; 31 g ai/ha, 0 to 100 scale, 0 no effect, 100 complete control)
20: Arrowleaf Sida plant response rating ([4]; 31 g ai/ha, preemergence)

N#Cc1cccc(Oc2ncc(F)cn2)c1-n1cc(I)cn1 [Compound 86]
30: Foxtail, Giant plant response rating ([2]; 62 g ai/ha)
15: Foxtail, Giant plant response rating ([2]; 31 g ai/ha) | Foxtail, Green plant response rating ([7]; 62 g ai/ha)
10: Sandbur plant response rating ([1]; 31 g ai/ha) | Sandbur plant response rating ([1]; 62 g ai/ha) | Plant response rating, Sandbur [1, 9]
60: Plant response rating, Arrowleaf Sida [4, 11]
90: Plant response rating, Ragweed [8, 13]
75: Plant response rating, Foxtail, Green [7, 9]
0: Sandbur plant response rating ([1]; 16 g ai/ha) | Foxtail, Giant plant response rating ([2]; 16 g ai/ha) | Ryegrass, Italian plant response rating ([3]; 16 g ai/ha) | Ryegrass, Italian plant response rating ([3]; 31 g ai/ha) | Ryegrass, Italian plant response rating ([3]; 62 g ai/ha) | Arrowleaf Sida plant response rating ([4]; 16 g ai/ha, preemergence) | Johnsongrass plant response rating ([5]; 16 g ai/ha) | Johnsongrass plant response rating ([5]; 31 g ai/ha) | Surinam Grass plant response rating ([6]; 16 g ai/ha) | Surinam Grass plant response rating ([6]; 31 g ai/ha) | Surinam Grass plant response rating ([6]; 62 g ai/ha) | Plant response rating, Surinam Grass [6, 9] | Foxtail, Green plant response rating ([7]; 16 g ai/ha) | Foxtail, Green plant response rating ([7]; 31 g ai/ha)
100: Plant response rating, Foxtail, Giant [2, 9] | Plant response rating, Arrowleaf Sida [4, 12] | Plant response rating, Ragweed [8, 14]
65: Johnsongrass plant response rating ([5]; 62 g ai/ha) | Plant response rating, Johnsongrass [5, 9]
5: Plant response rating, Ryegrass, Italian [3, 9] | Arrowleaf Sida plant response rating ([4]; 31 g ai/ha, preemergence)

N#Cc1cccc(Oc2ncc(Br)cn2)c1-n1cc(I)cn1 [Compound 88]
30: Arrowleaf Sida plant response rating ([4]; 16 g ai/ha, preemergence) | Plant response rating, Ragweed [8, 14]
15: Johnsongrass plant response rating ([5]; 62 g ai/ha) | Plant response rating, Johnsongrass [5, 9]
10: Plant response rating, Sandbur [1, 9] | Plant response rating, Arrowleaf Sida [4, 11] | Plant response rating, Surinam Grass [6, 9] | Plant response rating, Ragweed [8, 13]
40: Arrowleaf Sida plant response rating ([4]; 31 g ai/ha, preemergence)
0: Sandbur plant response rating ([1]; 16 g ai/ha) | Sandbur plant response rating ([1]; 31 g ai/ha) | Sandbur plant response rating ([1]; 62 g ai/ha) | Foxtail, Giant plant response rating ([2]; 16 g ai/ha) | Foxtail, Giant plant response rating ([2]; 31 g ai/ha) | Foxtail, Giant plant response rating ([2]; 62 g ai/ha) | Ryegrass, Italian plant response rating ([3]; 16 g ai/ha) | Ryegrass, Italian plant response rating ([3]; 31 g ai/ha) | Ryegrass, Italian plant response rating ([3]; 62 g ai/ha) | Plant response rating, Ryegrass, Italian [3, 9] | Johnsongrass plant response rating ([5]; 16 g ai/ha) | Johnsongrass plant response rating ([5]; 31 g ai/ha) | Surinam Grass plant response rating ([6]; 16 g ai/ha) | Surinam Grass plant response rating ([6]; 31 g ai/ha) | Surinam Grass plant response rating ([6]; 62 g ai/ha) | Foxtail, Green plant response rating ([7]; 16 g ai/ha) | Foxtail, Green plant response rating ([7]; 31 g ai/ha) | Foxtail, Green plant response rating ([7]; 62 g ai/ha)
35: Plant response rating, Arrowleaf Sida [4, 12] | Plant response rating, Foxtail, Green [7, 9]
25: Plant response rating, Foxtail, Giant [2, 9]

FC(F)c1cccc(Oc2ncc(Cl)cn2)c1-n1cc(Br)cn1 [Compound 194, 2-[2-(4-bromo-1H-pyrazol-1-yl)-3-(difluoromethyl)phenoxy]-5-chloropyrimidine]
50: Johnsongrass plant response rating ([5]; 62 g ai/ha)
80: Foxtail, Green plant response rating ([7]; 62 g ai/ha)
0: Ryegrass, Italian plant response rating ([3]; 31 g ai/ha) | Ryegrass, Italian plant response rating ([3]; 62 g ai/ha) | Johnsongrass plant response rating ([5]; 31 g ai/ha) | Surinam Grass plant response rating ([6]; 31 g ai/ha) | Surinam Grass plant response rating ([6]; 62 g ai/ha)
35: Arrowleaf Sida plant response rating ([4]; 31 g ai/ha, preemergence) | Foxtail, Green plant response rating ([7]; 31 g ai/ha)
75: Foxtail, Giant plant response rating ([2]; 62 g ai/ha)
25: Foxtail, Giant plant response rating ([2]; 31 g ai/ha)
20: Sandbur plant response rating ([1]; 31 g ai/ha) | Sandbur plant response rating ([1]; 62 g ai/ha)
100: Arrowleaf Sida plant response rating ([4]; 62 g ai/ha, preemergence)

Fc1cccc(Oc2ncc(Cl)cn2)c1-n1cc(I)cn1 [Compound 179]
0: Plant response rating, Sandbur [1, 15] | Plant response rating, Foxtail, Giant [2, 15] | Foxtail, Giant plant response rating ([2]; 16 g ai/ha) | Plant response rating, Ryegrass, Italian [3, 15] | Plant response rating, Arrowleaf Sida ([4]; 8 g ai/ha, preemergence, scale 0 to 100, 0 is no effect, 100 is complete control) | Plant response rating, Johnsongrass [5, 15] | Plant response rating, Surinam Grass [6, 15] | Surinam Grass plant response rating ([6]; 62 g ai/ha) | Plant response rating, Surinam Grass [6, 9] | Plant response rating, Foxtail, Green [7, 15] | Foxtail, Green plant response rating ([7]; 16 g ai/ha)
20: Arrowleaf Sida plant response rating ([4]; 16 g ai/ha, preemergence) | Johnsongrass plant response rating ([5]; 62 g ai/ha)
65: Foxtail, Giant plant response rating ([2]; 62 g ai/ha)
100: Plant response rating, Foxtail, Giant [2, 9] | Arrowleaf Sida plant response rating ([4]; 62 g ai/ha, preemergence) | Plant response rating, Arrowleaf Sida [4, 12] | Plant response rating, Foxtail, Green [7, 9]
15: Sandbur plant response rating ([1]; 62 g ai/ha) | Plant response rating, Sandbur [1, 9] | Ryegrass, Italian plant response rating ([3]; 62 g ai/ha) | Plant response rating, Ryegrass, Italian [3, 9]
25: Plant response rating, Johnsongrass [5, 9] | Foxtail, Green plant response rating ([7]; 62 g ai/ha)
